Earlier results, collected in US20020095197A1, “Application of photochemotherapy for the treatment of cardiac arrhythmias” (priority 2000, published 2002).

Tested on: vascular wall (adventitia, media, intima)
Conditions: photochemotherapy with Photofrin applied; literature report (Gonschior et al. 1997)

Substance: porfimer sodium [Photofrin]
- inflammatory cells in vessel wall layers following vascular trauma: presence of inflammatory cells in the adventitia (outermost layers), but not in the media or intima
